The source of these data is publication PMC7539012, “Hyperphosphorylated tau aggregation and cytotoxicity modulators screen identified prescription drugs linked to Alzheimer's disease and cognitive functions” (Scientific Reports, 2020).

Where a name gives a salt, the structure may show the parent alone.

In one assay the test system is T1, 1N4R p-tau.
T1 construct: made in house; host or cells: E. coli (PIMAX system)
In words: p-tau aggregation modulator screen of 1280-compound library (ThS fluorescence net change over 16 h).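 As to ThS net change: 30 µM compound with 6 µM p-tau over 16 h.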 Format: biochemical. Further details: key to PTAI>2SD: *: PTAI>2SD.
Settings: not given
Consider `CN(C)C(=O)C(CCN1CCC(O)(c2ccc(Cl)cc2)CC1)(c1ccccc1)c1ccccc1` [Loperamide hydrochloride], for which the ThS net change is given as 326.
Molecule `CCC1(c2cccc(O)c2)CCCCN(C)C1` (stereo not shown) [Meptazinol hydrochloride] showed a ThS net change of 462.

The assay is the same for the next values; noted with them: 1280-compound library screen; ThS fluorescence net change over 16 h.
`CCn1cc(C(=O)O)c(=O)c2cc(F)c(N3CCNC(C)C3)c(F)c21` (stereo not shown) [Lomefloxacin hydrochloride] gave a ThS net change of 390.
Same read-out and setting: to `CC[C@H](C)C(=O)O[C@H]1C[C@@H](C)C=C2C=C[C@H](C)[C@H](CC[C@@H]3C[C@@H](O)CC(=O)O3)[C@H]21` [Lovastatin] belongs 408; to `C#C[C@]1(O)CC[C@H]2[C@@H]3CCC4=CCCC[C@@H]4[C@H]3CC[C@@]21C` [Lynestrenol], 408; to `CC(=O)[C@H]1CC[C@H]2[C@@H]3C[C@H](C)C4=CC(=O)CC[C@]4(C)[C@H]3[C@@H](O)C[C@]12C` [Medrysone], 388.
In turn, `C=C1C[C@H]2[C@@H]3C=C(C)C4=CC(=O)CC[C@]4(C)[C@H]3CC[C@]2(C)[C@@]1(OC(C)=O)C(C)=O` [Melengestrol acetate] returned a ThS net change of 404.
`CC12CC3CC(C)(C1)CC(N)(C3)C2` [Memantine Hydrochloride] had a ThS net change of 405.
With `CCCNC(C)(C)COC(=O)c1ccccc1` [Meprylcaine hydrochloride], the ThS net change amounted to 405.
The molecule `CN1CCCCC1CCN1c2ccccc2Sc2ccc([S+](C)[O-])cc21` (stereo not shown) [Mesoridazine besylate] returned a ThS net change of 391.
Turning to `CC[N+](C)(CC)CCOC(=O)C1c2ccccc2Oc2ccccc21` [Methantheline bromide], the ThS net change is on record as 400.

The assay is the same for the next values; noted with them: 1280-compound library screen; […].
`CN1CCc2c(c3ccccc3n2Cc2ccccc2)C1.O=S(=O)(O)c1cccc2c(S(=O)(=O)O)cccc12` [Mebhydroline 1,5-naphtalenedisulfonate]: the ThS net change is reported as 385.
`CNC(C)(C)Cc1ccccc1.CNC(C)(C)Cc1ccccc1.O=S(=O)(O)O` [Mephentermine hemisulfate] returned a ThS net change of 380.

The same assay, now with this note: flag: p-tau aggregation inhibitor, ThS net change more than 2 SD from mean.
Regarding `C=C1c2c(Cl)ccc(O)c2C(=O)C2=C(O)[C@]3(O)C(=O)C(C(N)=O)=C(O)[C@@H](N(C)C)[C@@H]3[C@@H](O)[C@H]12.O=C(O)c1cc(S(=O)(=O)O)ccc1O` [Meclocycline sulfosalicylate], the “PTAI>2SD” value is listed as “*”.

Staying with this assay, now noted: library screen, ThS fluorescence net change over 16 h with p-tau.
Molecule `O=c1cc(-c2ccc(O)c(O)c2)oc2cc(O)cc(O)c12` [Luteolin] had a ThS net change of 296.
The same measure, in the same setting: the value for `CCN(CCCCOC(=O)c1ccc(OC)c(OC)c1)C(C)Cc1ccc(OC)cc1` (stereo not shown) [Mebeverine hydrochloride] was 295; that for `C=C1c2c(Cl)ccc(O)c2C(=O)C2=C(O)[C@]3(O)C(=O)C(C(N)=O)=C(O)[C@@H](N(C)C)[C@@H]3[C@@H](O)[C@H]12.O=C(O)c1cc(S(=O)(=O)O)ccc1O` [Meclocycline sulfosalicylate] was 171.
The same measure, in the same setting: to `OC(c1cc(C(F)(F)F)nc2c(C(F)(F)F)cccc12)C1CCCCN1` (stereo not shown) [Mefloquine hydrochloride] belongs 304; to `C[C@H](N)[C@H](O)c1cccc(O)c1` [Metaraminol bitartrate], 321.

Still in this assay, the particulars now being: p-tau aggregation modulator screen of 1280-compound library; ThS fluorescence net change.
For the molecule `N[C@@H](C(=O)N[C@@H]1C(=O)N2C(C(=O)O)=C(Cl)CC[C@H]12)c1ccccc1` [Loracarbef], the ThS net change is on record as 361.
`CN1CCN(C2=Nc3ccccc3Oc3ccc(Cl)cc32)CC1` [Loxapine succinate] registered a ThS net change of 358.
Still for that read-out and setting: to `CNCCCC12CCC(c3ccccc31)c1ccccc12` [Maprotiline hydrochloride] belongs 370; to `COC(=O)Nc1nc2ccc(C(=O)c3ccccc3)cc2[nH]1` [Mebendazole], 340.
In turn, `Cc1cccc(Nc2ccccc2C(=O)O)c1C` [Mefenamic acid] gave a ThS net change of 353.
For `CCN(CC)CCNC(=O)COc1ccc(OC)cc1.Cl` [Mefexamide hydrochloride], the ThS net change was 331.
As for `CC(=O)O[C@]1(C(C)=O)CC[C@H]2[C@@H]3C=C(C)C4=CC(=O)CC[C@]4(C)[C@H]3CC[C@@]21C` [Megestrol acetate], the ThS net change turned out to be 343.
In the case of `CNC[C@H](O)[C@@H](O)[C@H](O)[C@H](O)CO` [Meglumine], the ThS net change was 368.
For `COc1ccc2[nH]cc(CCNC(C)=O)c2c1` [Melatonin], the ThS net change is reported as 356.
On to `Cc1cnc(NC(=O)C2=C(O)c3ccccc3S(=O)(=O)N2C)s1` [Meloxicam], for which the ThS net change came out at 375.
`Cc1ccccc1OCC(O)CO` (stereo not shown) [Mephenesin] registered a ThS net change of 350.
As for `Nc1ccc(O)c(C(=O)O)c1` [Mesalamine], the ThS net change is 363.
Turning to `CN1C[C@H](CNC(=O)OCc2ccccc2)C[C@@H]2c3cccc4c3c(cn4C)C[C@H]21` [Metergoline], the ThS net change is 349.
On the same count and under the same terms, the value for `CC(=O)OC(C)C[N+](C)(C)C` (stereo not shown) [Methacholine chloride] was 370; that for `CN(C)CCN(Cc1cccs1)c1ccccn1` [Methapyrilene hydrochloride] was 370.
Regarding `CC(=O)/N=c1/sc(S(N)(=O)=O)nn1C` [Methazolamide], the ThS net change is 377.

Still in this assay, the particulars now being: p-tau aggregation modulator screen of 1280-compound library; […].
Turning to `CN(C)CCOC(=O)COc1ccc(Cl)cc1.Cl` [Meclofenoxate hydrochloride], the ThS net change is 359.
The same measure, in the same setting: to `C[N+]1(C)CCCC(OC(=O)C(O)(c2ccccc2)c2ccccc2)C1` (stereo not shown) [Mepenzolate bromide] belongs 366.

Staying with this assay, now noted: p-tau aggregation modulator screen of the compound library, ThS fluorescence net change.
`COc1ccc(CN2CCN(C(c3ccc(F)cc3)c3ccc(F)cc3)CC2)c(OC)c1OC.Cl` [Lomerizine hydrochloride] registered a ThS net change of 458.
`CCOC(=O)N1CCC(=C2c3ccc(Cl)cc3CCc3cccnc32)CC1` [Loratadine] gave a ThS net change of 450.
Take `CCCCCN(CCCCC)C(=O)C(CCC(=O)[O-])NC(=O)c1ccc(Cl)c(Cl)c1.[Na+]` (stereo not shown) [Lorglumide sodium salt]: the ThS net change is 520.
Take `CCCCc1nc(Cl)c(CO)n1Cc1ccc(-c2ccccc2-c2nn[nH]n2)cc1` [Losartan]: the ThS net change was 468.
`CCOC(=O)O[C@]1(C(=O)OCCl)CC[C@H]2[C@@H]3CCC4=CC(=O)C=C[C@]4(C)[C@H]3[C@@H](O)C[C@@]21C` [Loteprednol etabonate] gave a ThS net change of 531.
On the same count and under the same terms, to `NCc1ccc(S(N)(=O)=O)cc1` [Mafenide hydrochloride] belongs 415.
Take `CNC1(C)C2CCC(C2)C1(C)C` (stereo not shown) [Mecamylamine hydrochloride]: the ThS net change is listed as 418.
`Cc1cccc(CN2CCN(C(c3ccccc3)c3ccc(Cl)cc3)CC2)c1.Cl.Cl` (stereo not shown) [Meclozine dihydrochloride] registered a ThS net change of 430.
`CCC1(c2ccccc2)NC(=O)N(C)C1=O` (stereo not shown) [Mephenytoin] had a ThS net change of 453.
Same read-out and setting: the value for `Cc1cccc(C)c1NC(=O)C1CCCCN1C` (stereo not shown) [Mepivacaine hydrochloride] was 428; that for `S=c1[nH]cnc2nc[nH]c12` [Mercaptopurine] was 426; that for `C[C@@H](O)[C@H]1C(=O)N2C(C(=O)O)=C(S[C@@H]3CN[C@H](C(=O)N(C)C)C3)[C@H](C)[C@H]12` [Meropenem] was 490.
Still for that read-out and setting: to `O=S(=O)(O)CCS` [Mesna] belongs 424; to `CN(C)C(=N)N=C(N)N` [Metformin hydrochloride], 415.
Take `C=C1c2cccc(O)c2C(=O)C2=C(O)[C@]3(O)C(=O)C(C(N)=O)=C(O)[C@@H](N(C)C)[C@@H]3[C@@H](O)[C@H]12` [Methacycline hydrochloride]: the ThS net change amounted to 537.
